The structures appear in SMILES notation. Counter-ions that a name gives are not always drawn.

The assay has as its target T1, mGlyT-1b (Mus musculus, UniProt P28571).
T1 construct: host or cells: Flp-in-CHO
T1 sequence (P28571 1-651 isoform P28571-2): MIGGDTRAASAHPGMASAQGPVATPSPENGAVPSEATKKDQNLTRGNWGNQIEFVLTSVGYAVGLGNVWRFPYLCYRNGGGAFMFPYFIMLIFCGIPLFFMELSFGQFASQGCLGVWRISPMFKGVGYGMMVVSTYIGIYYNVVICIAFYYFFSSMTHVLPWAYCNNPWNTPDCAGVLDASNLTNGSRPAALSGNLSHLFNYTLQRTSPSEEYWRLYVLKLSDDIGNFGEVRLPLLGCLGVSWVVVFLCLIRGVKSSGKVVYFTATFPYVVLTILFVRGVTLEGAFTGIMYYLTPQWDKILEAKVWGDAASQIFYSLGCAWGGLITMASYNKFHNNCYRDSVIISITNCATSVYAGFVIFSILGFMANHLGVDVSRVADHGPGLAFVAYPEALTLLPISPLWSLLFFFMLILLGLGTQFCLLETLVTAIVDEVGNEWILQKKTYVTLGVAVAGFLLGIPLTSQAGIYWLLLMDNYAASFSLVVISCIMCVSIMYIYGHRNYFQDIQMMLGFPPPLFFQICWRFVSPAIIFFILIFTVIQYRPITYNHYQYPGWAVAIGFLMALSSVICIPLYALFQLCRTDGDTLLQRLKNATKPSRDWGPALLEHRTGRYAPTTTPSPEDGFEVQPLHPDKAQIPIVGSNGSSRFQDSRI
Kind of assay: Glycine uptake inhibition assay (mGlyT-1b), [3H]-glycine uptake in transfected Flp-in-CHO cells. To be noted: Flp-in-CHO cells transfected with mGlyT-1b cDNA; [3H]-glycine 60 nM and 25 μM non-radioactive glycine; 20 min preincubation at 22° C.; read-out: IC50 (μM) at GlyT-1; Ic50 (hglyt1b). The assay is classed as cell-based. On the procedure:
Nutrient mixture F-12 (Gibco Life-technologies), fetal bovine serum (FBS) 5%, (Gibco life technologies), Penicillin/Streptomycin 1% (Gibco life technologies), Hygromycin 0.6 mg/ml (Gibco life technologies), Glutamine 1 mM Gibco life technologies).
150 mM NaCl, 10 mM Hepes-Tris, pH 7.4, 1 mM CaCl2, 2.5 mM KCl, 2.5 mM MgSO4, 10 mM (+) D-glucose. Flp-in™-CHO (Invitrogen Cat n° R758-07) cells stably transfected with mGlyT1b cDNA.
Glycine Uptake Inhibition Assay (mGlyT-1b)
On day 1 mammalian cells, (Flp-in™-CHO), transfected with mGlyT-1b cDNA, were plated at the density of 40,000 cells/well in complete F-12 medium, without hygromycin in 96-well culture plates. On day 2, the medium was aspirated and the cells were washed twice with uptake buffer (UB). The cells were then incubated for 20 min at 22° C. with either (i) no potential competitor, (ii) 10 mM non-radioactive glycine, (iii) a concentration of a potential inhibitor. A range of concentrations of the potential inhibitor was used to generate data for calculating the concentration of inhibitor resulting in 50% of the effect (e.g. IC50, the concentration of the competitor inhibiting glycine uptake of 50%). A solution was then immediately added containing [^3H]-glycine 60 nM (11-16 Ci/mmol) and 25 μM non-radioactive glycine. The plates were incubated with gentle shaking and the reaction was stopped by aspiration of the mixture and washing (three times) with ice-cold UB. The cells were lysed with scintillation liquid, shaken 3 hours and the radioactivity in the cells was counted using a scintillation counter.
Broadly, the IC50 is the concentration needed to halve the response being measured. For the compound `Cc1nc(OC(C)C)ccc1[C@@H](O)[C@@H](N)c1ccc(Cl)c(Cl)c1` (racemic) [Example 27, rac-erythro-[2-Amino-2-(3,4-dichloro-phenyl)-1-(6-isopropoxy-2-methyl-pyridin-3-yl)-ethanoldihydrochloride], the IC50 is 0.259 µM.

Regarding `N[C@@H](c1ccc(Cl)c(Cl)c1)[C@H](O)c1ccc(OCC2CCCO2)cc1F` (mixture of isomers) [Example 28, rac-erythro-[2-Amino-2-(3,4-dichloro-phenyl)-1-[2-fluoro-4-(tetrahydro-furan-2-ylmethoxy)-phenyl]-ethanol, hydrochloride salt], the IC50 came out at 0.33 µM.

With `N[C@@H](c1ccc(Cl)c(Cl)c1)[C@H](O)c1ccc(OCC(O)CCCl)cc1F` (mixture of isomers) [Example 29, rac-erythro-[1-[4-[(rac)-2-Amino-2-(3,4-dichloro-phenyl)-1-hydroxy-ethyl]-3-fluoro-phenoxy]-4-chloro-butan-2-ol hydrochloride], the IC50 was 0.462 µM.

On to `Cc1cc(OC(C)C)ncc1[C@@H](O)[C@@H](N)c1ccc(Cl)c(Cl)c1` (racemic) [Example 30, rac-erythro-[2-Amino-2-(3,4-dichloro-phenyl)-1-(6-isopropoxy-4-methyl-pyridin-3-yl)-ethanoldihydrochloride], for which the half-inhibitory concentration (IC50) came out at 0.577 µM.

Take `Cc1cc([C@@H](O)[C@@H](N)c2ccc(Cl)c(Cl)c2)cnc1OC1CCOC1` (mixture of isomers) [Example 31, rac-erythro-[(rac)-2-Amino-2-(3,4-dichloro-phenyl)-1-[5-methyl-6-(tetrahydro-furan-3-yloxy)-pyridin-3-yl]-ethanoldihydrochloride]: the IC50 worked out at 0.646 µM.

`CC(C)Oc1ccc([C@@H](O)[C@@H](N)c2ccc(Cl)c(Cl)c2)nc1` (racemic) [Example 32, rac-erythro-[2-Amino-2-(3,4-dichloro-phenyl)-1-(5-isopropoxy-pyridin-2-yl)-ethanoldihydrochloride]: the IC50 is 0.842 µM.

Consider `N[C@@H](c1ccc(Cl)c(Cl)c1)[C@H](O)c1ccc(OC2CCOCC2)cc1F` (racemic) [Example 33, rac-erythro-[2-Amino-2-(3,4-dichloro-phenyl)-1-[2-fluoro-4-(tetrahydro-pyran-4-yloxy)-phenyl]-ethanol hydrochloride], for which the half-maximal inhibitory concentration (IC50) is 0.036 µM.

For the compound `CC1(COc2ccc([C@@H](O)[C@@H](N)c3ccc(Cl)c(Cl)c3)c(F)c2)COC1` (racemic) [Example 34, rac-erythro-[2-Amino-2-(3,4-dichloro-phenyl)-1-[2-fluoro-4-(3-methyl-oxetan-3-ylmethoxy)-phenyl]-ethanol], the 50% inhibitory concentration (IC50) was determined as 0.023 µM.

`C[Si](C)(C)c1ccc([C@@H](O)[C@@H](N)c2ccc(Cl)c(Cl)c2)cc1` (racemic) [Example 35, rac-erythro-[2-Amino-2-(3,4-dichloro-phenyl)-1-(4-trimethylsilanyl-phenyl)-ethanol trifluoroacetate]: the IC50 was 0.298 µM.

Take `C[C@@](O)(c1ccc(-c2ccccc2)cc1)[C@@H](N)c1ccc(Cl)cc1` (racemic) [Example 36, rac-erythro-[1-Amino-2-biphenyl-4-yl-1-(4-chloro-phenyl)-propan-2-ol trifluoroacetate]: the concentration for half-maximal inhibition (IC50) is 0.3 µM.

Turning to `CC(C)(C)c1ccc([C@@H](O)[C@@H](N)c2ccc(Cl)c(Cl)c2)cc1` (racemic) [Example 37, rac-erythro-[2-Amino-1-(4-tert-butyl-phenyl)-2-(3,4-dichloro-phenyl)-ethanol trifluoroacetate], the IC50 stood at 0.876 µM.

Regarding `N[C@@H](c1ccc(Cl)c(Cl)c1)[C@H](O)c1ccc(OC(F)(F)C(F)F)cc1` (racemic) [Example 38, rac-erythro-[2-Amino-2-(3,4-dichlorophenyl)-1-[4-(1,1,2,2-tetrafluoro-ethoxy)-phenyl]-ethanol], the IC50 worked out at 0.176 µM.

Consider `CN[C@@H](c1ccc(Cl)c(Cl)c1)[C@H](O)c1ccc(-c2cncc(F)c2)cc1` (racemic) [Example 39, rac-erythro-[2-(3,4-Dichloro-phenyl)-1-[4-(5-fluoro-pyridin-3-yl)-phenyl]-2-methylamino-ethanol hydrochloride], for which the IC50 is 0.208 µM.

Turning to `N[C@@H](c1ccc(Cl)c(Cl)c1)[C@H](O)c1ccc(OC2CCOCC2)cc1` (racemic) [Example 40, rac-erythro-[2-Amino-2-(3,4-dichloro-phenyl)-1-[4-(tetrahydro-pyran-4-yloxy)-phenyl]-ethanol], the IC50 stood at 0.052 µM.

Regarding `N[C@@H](c1ccc(Cl)c(Cl)c1)[C@H](O)c1ccc(OC2CCOC2)cc1` (mixture of isomers) [Example 42, rac-erythro-[rac-2-Amino-2-(3,4-dichloro-phenyl)-1-[4-(tetrahydro-furan-3-yloxy)-phenyl]-ethanol], the IC50 was 0.052 µM.

Take `CC(CO)(CCl)COc1ccc([C@@H](O)[C@@H](N)c2ccc(Cl)c(Cl)c2)cc1` (mixture of isomers) [Example 43, rac-erythro-[2-Amino-2-(3,4-dichloro-phenyl)-1-hydroxy-ethyl]-phenoxy]-2-chloromethyl-2-methyl-propan-1-ol hydrochloride]: the half-maximal inhibitory concentration (IC50) is 0.053 µM.

In the case of `N[C@@H](c1ccc(Cl)c(Cl)c1)[C@H](O)c1ccc(OC2CCS(=O)(=O)CC2)cc1` (racemic) [Example 44, rac-erythro-[2-Amino-2-(3,4-dichloro-phenyl)-1-[4-(1,1-dioxo-hexahydro-1λ^6-thio-pyran-4-yloxy)-phenyl]-ethanol], the 50% inhibitory concentration (IC50) came to 0.088 µM.

Regarding `N[C@@H](c1ccc(Cl)c(Cl)c1)[C@H](O)c1ccc(OCC2CCOCC2)cc1` (racemic) [Example 45, rac-erythro-[2-Amino-2-(3,4-dichloro-phenyl)-1-[4-(tetrahydro-pyran-4-ylmethoxy)-phenyl]-ethanol], the IC50 amounted to 0.147 µM.

Regarding `CC(=O)N1CCC(Oc2ccc([C@@H](O)[C@@H](N)c3ccc(Cl)c(Cl)c3)cc2)CC1` (racemic) [Example 46, rac-erythro-[1-(4-[4-[2-Amino-2-(3,4-dichloro-phenyl)-1-hydroxy-ethyl]-phenoxy]-piperidin-1-yl)-ethanone], the IC50 is 0.262 µM.

For `N[C@@H](c1ccc(Cl)c(Cl)c1)[C@H](O)c1ccc(OCC(F)(F)F)cc1` (racemic) [Example 47, rac-erythro-[2-Amino-2-(3,4-dichloro-phenyl)-1-[4-(2,2,2-trifluoro-ethoxy)-phenyl]-ethanol], the concentration for half-maximal inhibition (IC50) came to 0.266 µM.

As for `N[C@@H](c1ccc(Cl)cc1)[C@H](O)c1ccc(OC2CCCC2)cc1` (racemic) [Example 48, rac-erythro-[2-Amino-2-(4-chloro-phenyl)-1-(4-cyclopentyloxy-phenyl)-ethanol hydrochloride], the IC50 was 0.433 µM.

On to `N[C@@H](c1ccc(Cl)c(Cl)c1)[C@H](O)c1ccc(OCC2CC2)cc1` (racemic) [Example 49, rac-erythro-[2-Amino-1-(4-cyclopropylmethoxy-phenyl)-2-(3,4-dichloro-phenyl)-ethanol], for which the IC50 amounted to 0.533 µM.

For the compound `CC(C)COc1ccc([C@@H](O)[C@@H](N)c2ccc(Cl)c(Cl)c2)cc1` (racemic) [Example 50, rac-erythro-2-Amino-2-(3,4-dichloro-phenyl)-1-(4-isobutoxy-phenyl)-ethanol], the IC50 was determined as 0.549 µM.

With `CCC(C)Oc1ccc([C@@H](O)[C@@H](N)c2ccc(Cl)c(Cl)c2)cc1` (mixture of isomers) [Example 51, rac-erythro-2-Amino-1-(4-sec-butoxy-phenyl)-2-(3,4-dichloro-phenyl)-ethanol], the 50% inhibitory concentration (IC50) was determined as 0.72 µM.

As for `N[C@@H](c1ccc(Cl)c(Cl)c1)[C@H](O)c1ccc(OCCC(F)(F)F)cc1` (racemic) [Example 52, rac-erythro-2-Amino-2-(3,4-dichloro-phenyl)-1-[4-(3,3,3-trifluoro-propoxy)-phenyl]-ethanol], the IC50 was 0.772 µM.

For the compound `N[C@@H](c1ccc(Cl)cc1)[C@H](O)c1ccc(OC2CCCCC2)cc1` (racemic) [Example 53, rac-erythro-2-Amino-2-(4-chloro-phenyl)-1-(4-cyclohexyloxy-phenyl)-ethanol], the 50% inhibitory concentration (IC50) came to 1.03 µM.
